Where two headings read alike, the source gives them in different places. *1 amine or outer side, *2 acyl side, *3 side chain or, on linkers, in order; H or OH if unused. Where a SMILES comes first, the peptide text is derived from it. Bridges are numbered along the chain shown (N, C = ends). [ ]: non-standard residue; d: D form. TATA = O=C(CC[*:1])N1CN(C(=O)CC[*:2])CN(C(=O)CC[*:3])C1; Trp(6-Cl) = N[C@@H](Cc1c[nH]c2cc(Cl)ccc12)C(=O)O; hArg = N=C(N)NCCCC[C@H](N)C(=O)O
Key:
EcPBP3 [1] = biological target: T1, EcPBP3 (Escherichia coli, UniProt P0AD68); assay: SPR binding assay on immobilised EcPBP3; conditions: 37 °C, kinetic fitting; NB = no binding at 2500 nM (Tables S-4, S-5) or 5000 nM (Table 1); read-out: Kd (nM) by SPR (geomean)
T1 construct: For assays, selections and SPR a construct with residues 60–588 which has the N-terminal domain, but not the transmembrane helix, was used; made in house
Method in brief: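 EcPBP3 amine-coupled to CM5 chip (1500-2500 RU); compounds injected at 37 °C in 10 mM HEPES pH 8.0, 200 mM NaCl, 0.05% Tween-20, 2% DMSO, 50 μL min^–1, 150 s contact, 2400 s dissociation. Double-referenced sensorgrams kinetically fitted for Kd; geometric mean of ≥2 biological replicates.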

PBPs in E. coli = assay: Bocillin FL staining of PBPs extracted from bacterial membranes; assay type: binding, E. coli strain DC2; conditions: peptides at 3 µM, membranes of E. coli DC2
Procedure: Staining of PBPs extracted from bacterial membranes with Bocillin FL was used to determine the binding of peptide 2 (and its all-D analogue) to other PBPs in E. coli[8].
Method was adapted from that described by Kocaoglu and Carlson[8]. E. coli strain DC2 cells were grown overnight at 37 °C then diluted 100-fold and allowed to grow at 37 °C to an OD600 of 0.5 in Lysogeny broth (LB). The cells were then centrifuged (3220 x g for 10 min at room temperature) and washed once in PBS (pH 7.4) then pelleted and resuspended in ice-cold PBS. Cells were sonicated (Fisherbrand™ Model 505 Sonic Dismembrator) on ice for five 10 s intervals with 15 s cooling time in between rounds. The membranes were collected by centrifugation (21,000 x g for 15 min at 4 °C) and resuspended the pellet in 100 µL PBS using a blunt needle. The resuspended membranes were incubated with the indicated compound for 15 min at room temperature then 10 µg ml^–1 BOCILLIN-Fl (Invitrogen) was added and reacted with the resuspended membranes for 10 min. […] The total protein content of each condition was normalised to 2.5 mg ml^–1 by measuring the absorbance at A280 and adjusting where necessary with the addition of PBS. […] Following fluorescence imaging, the gel was stained with InstantBlue Ultrafast protein stain (Abcam), washed twice in water and imaged in brightfield with an iBright FL1500.

EcPBP3 [2] = biological target: T1, EcPBP3; assay: Fluorescence polarisation competition assay with BOCILLIN-FL as tracer; assay type: binding; conditions: competition format, NB, non-binder (100 μM top concentration)
Procedure: Binding of output peptides to EcPBP3 was evaluated using a fluorescence polarisation (FP) assay.
[…] 10 µL of protein (9.4 nM) was mixed with either 5 µL of peptide or 5 µL of buffer and then the assay was initiated by the addition of 10 µL of tracer (1 nM) (final volume 25 µL), in a black 384 low bind, low volume plate (Corning). The buffer was 10 mM HEPES (Sigma), 2% (v/v) glycerol (Sigma), 300 mM NaCl (Sigma), adjusted to pH 8. The plate was incubated for 1 h at 25 °C and then read in a PHERAstar FS (BMG) using with an “FP 485 520 520” optic module (excitation 485 nm, emission 520 nm). The gain was determined immediately prior to the read on a tracer-only well.
Dotmatics (Dotmatics) workflows performing the above calculations were used to process the data. Values quoted are the geometric means of at least 2 repeats.

E. coli GKCW102 (EcPore) = conditions: caMHB, biological replicates or their range
Procedure: (§1) To evaluate the engagement of EcPBP3 by a bicyclic peptide in whole cells lacking the outer membrane permeability barrier, peptides were screened in ‘hyperporinated’ E. coli strains in which a constitutively open FhuA pore (FhuAΔC/Δ4L, lacking N-terminal cork domain and external loops) was chromosomally expressed under control of an arabinose-inducible promoter.
(§2) Minimal inhibition concentration (MIC) assays were performed in accordance with CLSI standards, using cation-adjusted Mueller Hinton broth (caMHB; Sigma Aldrich) unless otherwise specified. Induction of pore expression in hyperporinated strains E. coli GKCW101 and GKCW102 was performed by addition of 0.1% (w/v) L-arabinose to cultures at OD600 ~ 0.3, with caMHB as the culture medium.

E. coli GKCW101 (WT) = conditions: caMHB; biological replicates or their range
Procedure: as §1, §2

E. coli ATCC 25922 = assay: MIC, wild-type strain; assay type: cell-based, Escherichia coli; conditions: MHB; biological replicates or their range
Procedure: as §2

EcPBP3 [3] = biological target: T1, EcPBP3; assay: Fluorescence polarisation competition assay with fluorescent Bicycle tracer (tracer 1 / BCY12820); assay type: binding; conditions: protein 9.4 nM sets sensitivity limit, top concentration 5 µM, read-out: Ki (nM) by fluorescence polarisation with tracer 1 (BCY12820 as tracer), Geometric mean (Lower 95% CI; Upper 95% CI, n=number of values)
Method in brief: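 Unlabelled peptide competes with fluorescent Bicycle tracer (1 nM, as added) for EcPBP3 (9.4 nM, as added) in 10 mM HEPES, 2% glycerol, 300 mM NaCl, pH 8.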

Mouse blood stability = assay type: in vitro ADME, CD-1 mice; conditions: CD-1, mouse, whole blood (EDTA as anticoagulant), 37 °C, SAR peptides, read-out: Blood stability (t1/2) (converted)
Procedure: Stability assays were performed using freshly collected matrices from CD-1 mice, with anticoagulant as stated per dataset. Compound stocks in DMSO were tested at 5 μM final concentration (0.5% (v/v) DMSO). Compounds were incubated in blood or plasma at 37 °C for 24 h, with sampling at 0, 1, 2, 4, 6 and 24 h. Samples were prepared via protein precipitation using organic solvent containing internal standard, and analyzed by LC-MS/MS. Compound remaining was quantified based on the ratio of analyte to internal standard, and the half-life (t1/2) was calculated from a log linear plot of % remaining versus time.

T1 sequence (P0AD68 60-588): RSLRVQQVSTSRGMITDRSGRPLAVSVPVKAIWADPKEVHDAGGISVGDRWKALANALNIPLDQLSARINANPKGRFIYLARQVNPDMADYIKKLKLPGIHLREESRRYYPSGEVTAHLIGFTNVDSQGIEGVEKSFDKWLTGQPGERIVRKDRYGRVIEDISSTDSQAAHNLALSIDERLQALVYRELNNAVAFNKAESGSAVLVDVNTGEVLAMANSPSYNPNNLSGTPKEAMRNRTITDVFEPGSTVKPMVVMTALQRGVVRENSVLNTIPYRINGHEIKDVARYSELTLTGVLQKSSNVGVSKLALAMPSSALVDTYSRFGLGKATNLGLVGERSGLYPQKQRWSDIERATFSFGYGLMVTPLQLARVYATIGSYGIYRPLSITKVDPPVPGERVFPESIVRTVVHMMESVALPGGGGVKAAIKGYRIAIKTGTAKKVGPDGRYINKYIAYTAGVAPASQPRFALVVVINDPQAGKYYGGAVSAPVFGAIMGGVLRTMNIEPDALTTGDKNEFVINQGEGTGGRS

Structure (SMILES)	Kd (EcPBP3 [1])	Binding to other PBPs in E. coli (Bocillin FL staining) (PBPs in E. coli)	IC50 (nM) by fluorescence polarisation with Bocillin FL as tracer, Geometric mean (Lower 95% CI of geo. Mean; Upper 95% CI of geo. Mean, n=number of values) (EcPBP3 [2])	IC50 (EcPBP3 [2]; read-out: IC50 (nM) by fluorescence polarisation with Bocillin FL as tracer, Geometric mean (Lower 95% CI of geo. Mean; Upper 95% CI of geo. Mean, n=number of values))	MIC E. coli GKCW102 (EcPore) (E. coli GKCW102 (EcPore))	MIC E. coli GKCW102 (EcPore) (E. coli GKCW102 (EcPore); listed as peptide 2)	MIC E. coli GKCW101 (WT) (E. coli GKCW101 (WT))	MIC E. coli ATCC 25922 (E. coli ATCC 25922)	Ki (EcPBP3 [3])	half-life at 5 μM (Mouse blood stability)
CC(C)[C@@H]1NC(=O)[C@H](Cc2c[nH]c3ccccc23)NC(=O)[C@@H]2CCCN2C(=O)[C@@H]2CSCCC(=O)N3CN(CN(C3)C(=O)CCSC[C@H](NC(=O)[C@H](C)N)C(=O)N[C@@H](CO)C(=O)N[C@@H](Cc3ccccc3)C(=O)N3CCC[C@H]3C(=O)N[C@@H](CCCCN)C(=O)N2)C(=O)CCSC[C@@H](C(=O)N[C@@H](C)C(N)=O)NC(=O)CNC(=O)[C@H](CCC(=O)O)NC1=O [Peptide 2]	5.23 nM	bound only to the active site of E. coli PBP3	showed binding to EcPBP3	602 nM	0.5 to 2 µg/mL	0.5 to 2 µg/mL	> 128 µg/mL	> 16 µg/mL	< 9 nM	–
CC(=O)N[C@H]1CSCCC(=O)N2CN3CN(C2)C(=O)CCSC[C@H](NC(=O)[C@H](CCCCNC(=N)N)NC(=O)[C@@H]2CCCN2C(=O)[C@H](Cc2ccccc2)NC(=O)[C@H](CO)NC1=O)C(=O)N1CCC[C@H]1C(=O)N[C@@H](Cc1c[nH]c2ccccc12)C(=O)N[C@@H](C(C)C)C(=O)N[C@@H](CCC(=O)O)C(=O)NCC(=O)N[C@H](C(=O)N[C@@H](C)C(N)=O)CSCCC3=O [Peptide 74] (HELM PEPTIDE1{[ac].C.S.F.P.[N=C(N)NCCCC[C@H](N[*:1])C(=O)[*:2]].C.P.W.V.E.G.C.A.[am]}|CHEM1{[O=C(CC[*:1])N1CN(C(=O)CC[*:2])CN(C(=O)CC[*:3])C1]}$PEPTIDE1,CHEM1,2:R3-1:R1|PEPTIDE1,CHEM1,7:R3-1:R2|PEPTIDE1,CHEM1,13:R3-1:R3$$$V2.0)	–	–	–	–	–	–	–	–	–	1060 min
CC(=O)N[C@@H](C)C(=O)N[C@H]1CSCCC(=O)N2CN3CN(C2)C(=O)CCSC[C@H](NC(=O)[C@H](CCCCNC(=N)N)NC(=O)[C@@H]2CCCN2C(=O)[C@H](Cc2ccccc2)NC(=O)[C@H](CO)NC1=O)C(=O)N1CCC[C@H]1C(=O)N[C@@H](Cc1c[nH]c2cc(Cl)ccc12)C(=O)N[C@@H](C(C)C)C(=O)N[C@@H](CCC(=O)O)C(=O)NCC(=O)N[C@H](C(=O)N[C@@H](C)C(N)=O)CSCCC3=O [Peptide 75, [-Ac]ACSFP[HArg]CP[6ClTrp]VEGCA] (Ac-ACSFP[hArg]CP[Trp(6-Cl)]VEGCA-NH2; linker 2-7-13 via TATA)	–	–	–	–	–	–	–	–	–	684 min
